Results reported in ChEMBL document CHEMBL1143568, “A new class of selective myocardial calcium channel modulators. 2. Role of the acetal chain in oxadiazol-3-one derivatives” (J Med Chem, 2005).

How the values were obtained:
Cavia porcellus [1] = species: Cavia porcellus; assay: Negative inotropic potency as decrease in the developed tension in isolated guinea pig left artium
Cavia porcellus [2] = species: Cavia porcellus; assay: Negative inotropic activity as decrease in the developed tension in isolated guinea pig left artium at 10E-5 M (n=4-6)
Cavia porcellus [3] = species: Cavia porcellus; assay: Vasorelaxant activity determined by percentage inhibition of calcium-induced contraction on K+ depolarized guinea pig aortic strip at 5x10E-5 M
Cavia porcellus [4] = species: Cavia porcellus; assay: Negative chronotropic activity was determined as percent decrease in the artial rate in spontaneously beating guinea pig artium at 5x10E-5 M (n=6-8)
Cavia porcellus [5] = species: Cavia porcellus; assay: Negative inotropic activity as decrease in the developed tension in isolated guinea pig left artium at 5x10E-5 M (n=4-6)
Cavia porcellus [6] = species: Cavia porcellus; assay: Negative chronotropic activity was determined as percent decrease in the artial rate in spontaneously beating guinea pig artium at 10E-5 M (n=6-8)
Cavia porcellus [7] = species: Cavia porcellus; assay: Negative inotropic activity as decrease in the developed tension in isolated guinea pig left artium 10E-6 M (n=4-6)
Cavia porcellus [8] = species: Cavia porcellus; assay: Negative inotropic activity as decrease in the developed tension in isolated guinea pig left artium at 5x10E-5 M (n=4-6); remark: listed apart in the source
Cavia porcellus [9] = species: Cavia porcellus; assay: Negative inotropic activity as decrease in the developed tension in isolated guinea pig left artium at 5x10E-6 M (n=4-6)
Cavia porcellus [10] = species: Cavia porcellus; assay: Negative inotropic activity as decrease in the developed tension in isolated guinea pig left artium at 10E-5 M (n=4-6); remark: listed apart in the source
Cavia porcellus [11] = species: Cavia porcellus; assay: Vasorelaxant activity determined by percentage inhibition of calcium-induced contraction on K+ depolarized guinea pig aortic strip
Cavia porcellus [12] = species: Cavia porcellus; assay: Negative inotropic activity as decrease in the developed tension in isolated guinea pig left artium 5x10E-5 M (n=4-6)
Cavia porcellus [13] = species: Cavia porcellus; assay: Compound was tested for percent change in maximal rate of the rise in left ventricular pressure in isolated guinea pig atrium
Cavia porcellus [14] = species: Cavia porcellus; assay: Compound was tested for percent change in heart rate in isolated guinea pig atrium
Cavia porcellus [15] = species: Cavia porcellus; assay: Compound was tested for percent change in atrioventricular conduction time in isolated guinea pig atrium
Cavia porcellus [16] = species: Cavia porcellus; assay: Negative inotropic activity as decrease in the developed tension in isolated guinea pig left artium at 10E-6 M (n=4-6)
Cavia porcellus [17] = species: Cavia porcellus; assay: Compound was tested for percent change in coronary perfusion pressure in isolated guinea pig atrium
Cavia porcellus [18] = species: Cavia porcellus; assay: Negative chronotropic activity was determined as percent decrease in the artial rate in spontaneously beating guinea pig artium at5x10E-5 M (n=6-8)
Cavia porcellus [19] = species: Cavia porcellus; assay: Selectivity ratio against negative inotropic potency on left atrium to that of negative inotropic potency on left ventricular papillary muscle in guinea pig
Cavia porcellus [20] = species: Cavia porcellus; assay: Negative inotropic potency as maximal rate of the rise in left ventricular pressure in isolated guinea pig atrium; conditions: Cardiac atrium
Cavia porcellus [21] = species: Cavia porcellus; assay: Negative inotropic potency as coronary perfusion pressure in isolated guinea pig atrium; conditions: Cardiac atrium
Cavia porcellus [22] = species: Cavia porcellus; assay: Negative inotropic potency is determined by decrease in the developed tension on isolated left ventricular papillary muscle (n=5-7); conditions: Muscle tissue

EC50 (Cavia porcellus [1])	SMILES	Decrease (Cavia porcellus [3])	Decrease (Cavia porcellus [4])	Decrease (Cavia porcellus [5])	other results
800 nM	CC1=CS[C@@](O)(c2ccc(Cl)cc2)c2noc(=O)n21	26%	18%	–	Decrease (Cavia porcellus [2]): 80%
890 nM	CCCOC1(c2ccc(Cl)cc2)SC=C(C)n2c1noc2=O (configuration not stated)	20%	7%	73%	–
740 nM	CC1=CSC(OCc2ccccc2)(c2ccc(Cl)cc2)c2noc(=O)n21 (configuration not stated)	4%	5%	63%	–
590 nM	CC1=CSC(OCc2ccccc2)(c2ccc(Br)cc2)c2noc(=O)n21 (configuration not stated)	2%	4%	63%	–
1260 nM	CCCCCCCC/C=C\CCCCCCCCO[C@@]1(c2ccc(Br)cc2)SC=C(C)n2c1noc2=O	2%	9%	84%	–
790 nM	CCCCCCCCCOC1(c2ccc(Cl)cc2)SC=C(C)n2c1noc2=O (configuration not stated)	4%	11%	73%	–
190 nM	CC1=CS[C@@](OCC2CCCCC2)(c2ccc(Br)cc2)c2noc(=O)n21	3%	8%	78%	–
1020 nM	CCCCOC1(c2ccc(Br)cc2)SC=C(C)n2c1noc2=O (configuration not stated)	2%	18%	82%	–
550 nM	C=CCOC1(c2ccc(Br)cc2)SC=C(C)n2c1noc2=O (configuration not stated)	13%	13%	91%	–
560 nM	CC1=CSC(OCC(C)C)(c2ccc(Cl)cc2)c2noc(=O)n21 (configuration not stated)	37%	15%	83%	–
310 nM	CC1=CSC(OCC(C)C)(c2ccc(Br)cc2)c2noc(=O)n21 (configuration not stated)	6%	11%	–	Decrease (Cavia porcellus [2]): 79%
1130 nM	CCCCCCCCCCCCCCCOC1(c2ccc(Cl)cc2)SC=C(C)n2c1noc2=O (configuration not stated)	3%	9%	69%	–
240 nM	CC1=CS[C@@](OCC2CCCCC2)(c2ccc(Cl)cc2)c2noc(=O)n21	5%	5%	55%	–
–	COC1(c2ccc(Br)cc2)SC=C(C)n2c1noc2=O (configuration not stated)	13%	–	–	Decrease (Cavia porcellus [6]): 9%; Decrease (Cavia porcellus [7]): 38%
870 nM	CCCCCCCC/C=C\CCCCCCCCO[C@@]1(c2ccc(Cl)cc2)SC=C(C)n2c1noc2=O	7%	14%	70%	–
640 nM	CCCCCCOC1(c2ccc(Cl)cc2)SC=C(C)n2c1noc2=O (configuration not stated)	3%	10%	68%	–
–	CCCCCOC1(c2ccc(Cl)cc2)SC=C(C)n2c1noc2=O (configuration not stated)	15%	14%	–	Decrease (Cavia porcellus [8]): 45%
630 nM	CC/C=C\COC1(c2ccc(Br)cc2)SC=C(C)n2c1noc2=O (configuration not stated)	11%	20%	81%	–
–	CC/C=C/COC1(c2ccc(Br)cc2)SC=C(C)n2c1noc2=O (configuration not stated)	11%	10%	43%	–
320 nM	CC1=CS[C@@](O)(c2ccc(Br)cc2)c2noc(=O)n21	12%	18%	97%	–

EC50 (Cavia porcellus [1])	SMILES	Decrease (Cavia porcellus [3])	Decrease (Cavia porcellus [4])	Decrease (Cavia porcellus [5])	other results
220 nM	CC1=CS[C@@](OC(C)C)(c2ccc(Cl)cc2)c2noc(=O)n21	10%	10%	–	Decrease (Cavia porcellus [9]): 64%
1540 nM	COC1(c2ccc(Cl)cc2)SC=C(C)n2c1noc2=O (configuration not stated)	14%	22%	62%	–
–	CCCCCOC1(c2ccc(Br)cc2)SC=C(C)n2c1noc2=O (configuration not stated)	3%	2%	34%	–
1850 nM	CCCCOC1(c2ccc(Cl)cc2)SC=C(C)n2c1noc2=O (configuration not stated)	9%	9%	62%	–
270 nM	CCO[C@@]1(c2ccc(Cl)cc2)SC=C(C)n2c1noc2=O	28%	16%	53%	–
970 nM	CCCCCCCCCCCCCCCCCCO[C@@]1(c2ccc(Br)cc2)SC=C(C)n2c1noc2=O	6%	5%	66%	–
830 nM	CCCCCCOC1(c2ccc(Br)cc2)SC=C(C)n2c1noc2=O (configuration not stated)	2%	9%	81%	–
270 nM	CC1=CSC(OC(C)C)(c2ccc(Br)cc2)c2noc(=O)n21 (configuration not stated)	18%	4%	–	Decrease (Cavia porcellus [10]): 58%
–	CCCCCCCCCCCCCCCCCCOC1(c2ccc(Cl)cc2)SC=C(C)n2c1noc2=O (configuration not stated)	2%	–	39%	Decrease (Cavia porcellus [6]): 15%
420 nM	CCCCCCCCCCCCCCCO[C@@]1(c2ccc(Br)cc2)SC=C(C)n2c1noc2=O	–	12%	75%	Decrease (Cavia porcellus [11]): 4%
370 nM	C=CCOC1(c2ccc(Cl)cc2)SC=C(C)n2c1noc2=O (configuration not stated)	21%	13%	84%	–
870 nM	CCCCCCCCCCCCOC1(c2ccc(Cl)cc2)SC=C(C)n2c1noc2=O (configuration not stated)	5%	5%	–	Decrease (Cavia porcellus [12]): 56%
40 nM	CCO[C@@]1(c2ccc(Br)cc2)SC=C(C)n2c1noc2=O	19%	–	–	Decrease (Cavia porcellus [6]): 5%; Change (Cavia porcellus [13]): -14%; Change (Cavia porcellus [14]): -9%; Change (Cavia porcellus [15]): -3%; Decrease (Cavia porcellus [16]): 77%; Change (Cavia porcellus [17]): 32%
410 nM	CCCOC1(c2ccc(Br)cc2)SC=C(C)n2c1noc2=O (configuration not stated)	14%	–	69%	Decrease (Cavia porcellus [18]): 12%
790 nM	COc1ccc([C@@H]2Sc3ccccc3N(CCN(C)C)C(=O)[C@@H]2OC(C)=O)cc1 [DILTIAZEM]	88%	94%	–	Selectivity (Cavia porcellus [19]): 2.04; EC50 (Cavia porcellus [20]): 9.33 nM; Change (Cavia porcellus [13]): -59%; Decrease (Cavia porcellus [2]): 78%; Change (Cavia porcellus [14]): -25%; EC50 (Cavia porcellus [21]): 21.9 nM; EC50 (Cavia porcellus [22]): 1610 nM; Change (Cavia porcellus [15]): 34%; Change (Cavia porcellus [17]): -51%
–	CC/C=C/COC1(c2ccc(Cl)cc2)SC=C(C)n2c1noc2=O (configuration not stated)	10%	8%	46%	–
1310 nM	CC/C=C\COC1(c2ccc(Cl)cc2)SC=C(C)n2c1noc2=O (configuration not stated)	10%	5%	67%	–
350 nM	CCCCCCCCCO[C@@]1(c2ccc(Br)cc2)SC=C(C)n2c1noc2=O	3%	7%	71%	–
130 nM	CCCCCCCCCCCCO[C@@]1(c2ccc(Br)cc2)SC=C(C)n2c1noc2=O	3%	16%	–	Decrease (Cavia porcellus [2]): 59%
